Source: patent US20120083525A1, “COMPOSITION FOR PREVENTING OR TREATING OBESITY-RELATED DISEASES MEDIATED BY THE ACTIVATION OF AMPK AND INCLUDING 2,5-BIS-ARYL-3,4-DIMETHYLTETRAHYDROFURAN LIGNANS AS ACTIVE INGREDIENTS” (Amorepacific Corporation, priority 2009, published 2012)

System: high fat diet-induced obese model
Experiment: Anti-obesity effect in diet-induced obese (DIO) model, body weight change
Conditions: 100 mg/kg/day oral
Description: For the oral administration, the substances were dissolved in a 5% aqueous solution of methyl cellulose (Sigma Co., USA). 7-week-old male C57BL/6J mice were prepared for test, with 10 heads per group. After an accommodation period of 1 week, the mice were kept in individual cages and maintained with 12/12-hr light-dark cycles (lighting from 7 am to 5 pm). […] The corresponding substance was orally administered once a day at regular hours (10 am) for 8 weeks. Body weight was measured once a week (11 am). After 8 weeks of administration, the body weight of the test groups and the control group was analyzed.

## COc1cc(C[C@H](C)[C@H](C)Cc2ccc3c(c2)OCO3)ccc1O [Macelignan, macelignan]
14 days
  Body weight change (g) after oral administration, 14 days: 4.00 g
21 days
  Body weight change (g) after oral administration, 21 days: 5.31 g
28 days
  Body weight change (g) after oral administration, 28 days: 6.52 g
35 days
  Body weight change (g) after oral administration, 35 days: 8.91 g
42 days
  Body weight change (g) after oral administration, 42 days: 9.70 g
49 days
  Body weight change (g) after oral administration, 49 days: 10.63 g
